For series [1], the system named is H460 and A549 lung tumor cells. As to the kind of experiment: Glutathione synthesis and excretion after GLS inhibition, cell lines not separated. Type of series: cell-based, human. Conditions: for fold more effective in depletion of glutathione: compared with 100 to 10,000 μM buthionine sulfoximine reported previously; for glutathione synthesis and excretion: in vitro. As to the method:
GLS inhibition experiments: In the mechanistic experiments with BPTES or CB-839, cells (7500) were seeded (Time—24 hrs) into 96-well plates containing 100 μl complete medium, and allowed to attach for 24 hrs. […] Media aliquots of 25 μl were removed from each well at 24, 36, and 48 hrs to monitor the time course of metabolite consumption and production (metabolomic footprint). Cells were maintained at 37° C., 5% CO2 and 40% humidity until time of harvest. Cell viability was determined using Cell Glow, Cell TOX or MTT assays according to manufacture descriptions.
LC-MS quantitation by liquid chromatography tandem mass spectrometry (LC-MS/MS): Metabolites were extracted from cell pellets by the addition of 3 ml of 50% methanol/0.2% formic acid to the frozen cells in the culture flasks. Cells were scraped from the culture flasks and transferred to 15 ml tubes. Proteins were precipitated from 750 μl cell pellet suspensions by addition of 1050 μl acetonitrile/0.2% formic acid. Metabolites were extracted from 25 or 100 μl culture media from 96 well plates or 25-T flasks, respectively, and with the respective addition of 275 μl or 1300 μl of 40% methanol/60% acetonitrile/0.2% formic acid. Cell pellets or media suspensions were incubated on ice for 30 min, followed by centrifugation for 10 min at 13000 g. Supernatants were transferred to new vials, solvents were removed in a speed vac and the concentrated metabolites stored at -80° C. until analysis.
Samples were reconstituted in 0.2% formic acid and analyzed by LC-MS/MS (Agilent, 1290 Infinity LC coupled to an Agilent 6490 triple quadrupole mass analyzer). An Agilent Poroshell 2.7 μm C18 (2.1 mm×100 mm) column was operated with a linear gradient from 2% Methanol/0.01% formic acid to 95% Methanol/0.01% formic acid in 10 min. Individual metabolites were monitored in multiple reactions monitoring mode, monitoring specific ion transitions shown in Table 1. The specific ion transitions and retention times for each metabolite were established experimentally using commercially available standard compounds. Quantitation of the individual metabolites were based on external calibration curves that were generated with each set of samples. In the stable isotope tracing experiment, ^13C5-incorporation into subsequent metabolites was determined by monitoring the corresponding m/z ion transitions (Table 1).

Series [2] relates to A549 cells. In words: GSHE experiment: cell viability and toxicity with 10 μM BPTES. As to the method:
(§1) [^13C5]-glutamine experiments: To determine the fraction of glutathione that is derived directly from glutamine, A549 and H460 cell lines were cultured in 96-well plates in glutamine-free medium supplemented with 0.3 g/L [^13C5]-glutamine. Cell media aliquots were harvested at 12, 24, 36, and 48 hrs. Light microscopy was used at 12 hours to visualize the cells at each dosage. After 48 hours the CellTiter 96, CellTiter-Glo® 2.0, and CellTox™ Green Cytotoxicity assays, (Promega, Madison, Wis.) were utilized to respectively assess cell proliferation, cell viability, and cell death of both the BPTES and [^13C5]-glutamine experiments.
(§2) Glutathione-monoethyl ester (GSHE) experiments: Cells (7500) were seeded into 96 well plates containing 100 μl complete media. Cells were treated with 10 μM BPTES in DMSO and 0, 1, 5 and 10 mM GSHE. After 48 hrs cells were harvested and cell viability and toxicity were assessed as described above.

For series [3], the system named is H460 cells. The description is as above. How it is done:
as §1, §2

The test system of series [4] is A549 cells. As to the kind of experiment: Radiation sensitivity by clonogenic assay. Conditions: 2 μM BPTES 24 h, 4 Gy and 8 Gy, p<0.001. In kind it is cell-based, human. How it is done:
(§3) Radiation exposure of lung tumor cell lines: Radiation sensitivity was determined by methods described previously. In brief, for colony formation, A549 and H460 cells were seeded in 6-well plates containing 3 ml standard complete medium and allowed to attach for 24 h. Media were changed and cells were grown for another 24 h in standard medium, glutamine-free medium, medium containing 2 μM BPTES (to deplete glutathione), and medium containing only the vehicle. Cells were subsequently radiated using a Faxitron X-ray Generating System (CP-160, Faxitron X-Ray Corp., Wheeling, Ill.). Single-doses of 4 or 8 Gy (Gray) were delivered at a dose rate of 1 Gy/min (150 kVp and 6.6 mA). Cells were then placed in standard complete RPMI medium and allowed to form colonies for 8 days. The surviving colonies (containing >˜50 cells) were stained and counted on a stereomicroscope. Plating efficiency (PE) of cells with each treatment were determined and normalized to that of control untreated cells and the surviving fractions were calculated by dividing the PE of the treated cells by the PE of the control untreated cells.

For series [5], the system named is H460 cells. As to the kind of experiment: Radiation sensitivity by clonogenic assay. Conditions: 2 μM BPTES 24 h, 4 Gy and 8 Gy, p<0.001. In kind it is cell-based, human. How it is done: as §3
The test system of series [6] is A549 cells. As to the kind of experiment: GLS inhibition experiment, bright field images of cell death. In kind it is cell-based, human. Conditions: 10, 20, 40 and 100 μM, 48 hrs. How it is done:
(§4) GLS inhibition experiments: In the mechanistic experiments with BPTES or CB-839, cells (7500) were seeded (Time—24 hrs) into 96-well plates containing 100 μl complete medium, and allowed to attach for 24 hrs. Complete medium was added (Time 0 hrs) containing various concentrations of GLS inhibitors to give the final concentrations of 0.001 to 100 μM. Media aliquots of 25 μl were removed from each well at 24, 36, and 48 hrs to monitor the time course of metabolite consumption and production (metabolomic footprint). Cells were maintained at 37° C., 5% CO2 and 40% humidity until time of harvest. Cell viability was determined using Cell Glow, Cell TOX or MTT assays according to manufacture descriptions.

For series [7], the system named is H460 cells. The description is as above. The settings on record: 10, 20, 40 and 100 μM, 48 hrs. In kind it is cell-based, human. As to the method:
as §4

In series [8] the test system is H460 and A549 lung tumor cells. Type of series: cell-based. The settings on record: for cell proliferation and viability: FIG. 4 and FIG. 8. As to the method:
Media aliquots of 25 μl were removed from each well at 24, 36, and 48 hrs to monitor the time course of metabolite consumption and production (metabolomic footprint). Cells were maintained at 37° C., 5% CO2 and 40% humidity until time of harvest. Cell viability was determined using Cell Glow, Cell TOX or MTT assays according to manufacture descriptions.
Cells were seed in 6-well and allowed to attach for 1 day.
as §1, §3

In the next series the test system is H460 cell-derived tumors. In words: H460 mouse xenograft, tumor volume with and without radiation. In kind it is in vivo, nude mice. An excerpt: METHOD: Mouse xenograft experiments. For the first in vivo study, H460 cell-derived tumors were engrafted on the hind flank of 20 male. […] (1) control (2) CB-839, (3) 18 Gy radiation and (4) CB-839 plus 18 Gy radiation. For the second in vivo experiment, H460 cell-derived tumors were engrafted on the hind flank of 50 female nude mice. […] (1) Vehicle only, (2) 2 Gy radiation, (3) 4 Gy radiation, (4) 8 Gy radiation, (5) 12 Gy radiation, (6) Vehicle only plus CB-839, (7) 2 Gy radiation plus CB-839, (8) 4 Gy radiation plus CB-839, (9) […], (10) 12 Gy radiation plus CB-839. CB-839 was given three times at 20 mg/kg by oral gavage at 28, 16 and 4 hrs prior to a single dose of 18 Gy radiation. CB-839 was administered by oral gavage as solution of 200 mg/kg CB-839 in 200 ul 25% (w/v) hydroxypropyl-b-cyclodextrin in 10 mmol/[…], pH 2 or 25% (w/v) hydroxypropyl- b-cyclodextrin in 10 mmol/L citrate, pH 2. Thirty minutes prior to radiation treatment, 50 μl blood was taken form tail vein and serum was analyzed for reduced and oxidized GSH by LC-MS. Radiation was given as a single 1Gy/min dose for 2, 4, 8, 12, or 18 min respectively. Tumor volume measurements were repeated at the indicated days until termination of the animals. Tumor volume was computed by multiplying “a” times (“a” X “b”)/2. The “Mean tumor volumes” and “Relative tumor volume” for male and female mice are graphed in FIGS. 9A-B and FIGS. 10A-F, respectively.

The subject of series [9] is total glutathione in serum. As to the kind of experiment: Total glutathione (reduced plus oxidized) in serum by LC-MS at day of radiation. In kind it is in vivo, nude mice. As to the method: CB-839 was given three times at 20 mg/kg by oral gavage at 28, 16 and 4 hrs prior to a single dose of 18 Gy radiation. CB-839 was administered by oral gavage as solution of 200 mg/kg CB-839 in 200 ul 25% (w/v) hydroxypropyl-b-cyclodextrin in 10 mmol/Lcitrate, pH 2 or 25% (w/v) hydroxypropyl- b-cyclodextrin in 10 mmol/L citrate, pH 2. Thirty minutes prior to radiation treatment, 50 μl blood was taken form tail vein and serum was analyzed for reduced and oxidized GSH by LC-MS. Radiation was given as a single 1Gy/min dose for 2, 4, 8, 12, or 18 min respectively. Tumor volume measurements were repeated at the indicated days until termination of the animals. Tumor volume was computed by multiplying “a” times (“a” X “b”)/2. The “Mean tumor volumes” and “Relative tumor volume” for male and female mice are graphed in FIGS. 9A-B and FIGS. 10A-F, respectively.

Where [10] appears, read: male nude mice, day #17, CB-839 20 mg/kg oral gavage 28, 16 and 4 hrs before 18 Gy.

“Also recorded” adds a separate entry of the source. Some results are limits rather than exact numbers.

With `O=C(Cc1ccccc1)Nc1nnc(CCSCCc2nnc(NC(=O)Cc3ccccc3)s2)s1` [BPTES, Bis-2-(5-phenyl-acetamido-1,3,4-thiadiazol-2-yl) ethyl sulfide], the “concentration at which glutathione excretion was essentially abolished” value in [1] (FIG. 4, H460 and A549) was > 5 µM. Moreover, in series [1], the “fold more effective in depletion of glutathione” value is reported as ≥ 100 fold. Moreover, the “glutathione synthesis and excretion” value in [1] is on record as “abolished glutathione excretion”. Besides, the cell viability entry with A549 cells [2] (10 μM BPTES, 48 hrs) is recorded as “reduced viability”; in the series on H460 cells [3] (10 μM BPTES, 48 hrs), “reduced viability”. Further, the “radiation response, colony formation compared to control cells” value in the series on A549 cells [4] and in the series with H460 cells [5] was “radiation-induced reduction in colony formation” throughout. Also, the “cell death, visual” value with A549 cells [6] and in the series on H460 cells [7] was “visual increase in cell death” throughout. The “cell proliferation and viability” value in series [8] was “reduced cell proliferation and viability”. Also, the cell growth entry in series [8] (FIGS. 4A-4C) was “significant growth inhibition”.

Regarding `CCOC(=O)CNC(=O)[C@H](CS)NC(=O)CC[C@H](N)C(=O)O` [GSHE, Glutathione-monoethyl ester], the “protection against BPTES-induced cytotoxicity” value in the series on A549 cells [2] (1-10 mM GSHE with 10 μM BPTES) and with H460 cells [3] (1-10 mM GSHE with 10 μM BPTES) was “dose-dependent protection” each time.

With `O=C(Cc1cccc(OC(F)(F)F)c1)Nc1ccc(CCCCc2nnc(NC(=O)Cc3ccccn3)s2)nn1` [CB-839], in [1], the “fold more effective in depletion of glutathione” value is reported as “at least 1000 fold”; the “glutathione synthesis and excretion” value is “successfully depletes glutathione synthesis and excretion; also recorded: abolished glutathione excretion”. The “cell proliferation and viability” value in series [8] is “reduced cell proliferation and viability”. The “sensitivity to ionizing radiation in vitro” value in series [8] (in vitro) was “increase sensitivity to ionizing radiation”. Besides, in the series with H460 cell-derived tumors (H460 xenograft, short term (3 times) CB-839), the “response to radiation treatment improved, based on tumor volume over time” value is “more than 25%”. Further, in the series with H460 cell-derived tumors (H460 xenograft, short term (3 times) CB-839, no radiation), the “efficacy of short term CB-839 alone” value is “does not show efficacy”. The “tumor growth, CB-839 alone” value in the series on H460 cell-derived tumors (female nude mice, 3 doses orally every 12 hrs) is reported as “did not affect the tumor growth”. Besides, the “accelerated tumor growth caused by 2 Gy radiation” value with H460 cell-derived tumors (female nude mice, CB-839 plus 2 Gy) was “prevented”. Further, in the series on H460 cell-derived tumors (setting [10]), the “mean tumor size smaller, CB-839 plus radiation compared to CB-839 alone” value came to 90% and the “mean tumor size smaller, CB-839 plus radiation compared to radiation alone” value came to 20%. For the same compound, the “tumor growth, CB-839 alone compared to control” value in the series on H460 cell-derived tumors (male nude mice, three CB-839 treatments) was “did not affect subsequent tumor growth”. For the same compound, in series [9] (female nude mice, time of radiation, three doses of 200 mg/Kg/bw at 28, 16 and 4 hrs earlier), the “total glutathione in blood lower” value is 53%. In series [9] (in vivo, short term treatment), the serum glutathione reduced is on record as > 50%. Moreover, in series [9] (male nude mice, day #12 prior to radiation, CB-839 three times), the “total GSH in serum lower compared to none treated mice” value was determined as 56%.

The values are drawn from patent US20180104336A1, “Method of Increasing Radiation Sensitivity of Tumor Cells” (priority 2016, published 2018).
